In patent US6410735B1, “1-(4-arylpiperazin-1-y1)-ω-[N-(α,ω-dicarboximido)]-alkanes useful as uro-selective α1-adrenoceptor blockers” (Ranbaxy Laboratories Limited, priority 1997, dated 2002):
Where two headings read alike, the source gives them in different places.

What was measured:
[1] = target: T1, α1D-adrenoceptor (aorta) (Rattus norvegicus, UniProt P23944); experiment: In vitro functional assay, norepinephrine-induced contraction of isolated aorta; assay type: cell-based
T1 construct: Aorta, prostate and spleen tissues were isolated from urethane anaesthetized (1.5 gm/kg) male wistar rats; from tissue; host or cells: isolated aorta of male Wistar rats
T1 sequence (P23944 1-561): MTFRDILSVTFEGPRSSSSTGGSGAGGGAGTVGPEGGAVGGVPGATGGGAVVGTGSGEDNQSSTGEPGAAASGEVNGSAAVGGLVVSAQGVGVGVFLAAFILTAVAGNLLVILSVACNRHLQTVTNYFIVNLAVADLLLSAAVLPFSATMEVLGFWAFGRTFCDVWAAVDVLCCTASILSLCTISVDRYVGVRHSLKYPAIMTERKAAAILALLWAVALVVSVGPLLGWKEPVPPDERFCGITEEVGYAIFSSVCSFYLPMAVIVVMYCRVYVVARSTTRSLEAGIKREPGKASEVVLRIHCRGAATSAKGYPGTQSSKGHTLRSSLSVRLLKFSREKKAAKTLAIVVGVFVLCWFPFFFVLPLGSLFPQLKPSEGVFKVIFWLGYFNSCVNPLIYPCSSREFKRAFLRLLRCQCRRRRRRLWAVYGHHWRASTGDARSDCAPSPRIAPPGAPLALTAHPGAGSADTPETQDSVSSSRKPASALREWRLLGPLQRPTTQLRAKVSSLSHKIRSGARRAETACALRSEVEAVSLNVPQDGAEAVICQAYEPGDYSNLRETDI
Text: (§1) In order to study selectivity of action of the present compounds towards different α-adrenoceptor subtypes, the ability of these compounds to antagonize α1-adrenoceptor agonist induced contractile response of aorta (α1D), prostate (α1A) and spleen (α1B) was studied. Aorta, prostate and spleen tissues were isolated from urethane anaesthetized (1.5 gm/kg) male wistar rats. Isolated tissues were mounted in organ bath containing Krebs Henseleit buffer of the following composition (mM): NaCl 118; KCl 4.7; CaCl2 2.5; MgSO4·H2O 1.2; NaHCO3 25; KH2PO4 1.2; glucose 11.5. Buffer was maintained at 37° C. and aerated with a mixture of 95% O2 and 5% CO2. A resting tension of 2 g (aorta) or 1 g (spleen and prostate) was applied to tissues. Contractile response was monitored using a force displacement transducer and recorded on chart recorders. Tissues were allowed to equilibrate for 2 hours. At the end of equilibration period, concentration response curves to norepinephrine (aorta) and phenylephrine (spleen and prostate) were obtained in the absence and presence of the tested compound (at concentrations of 0.1, 1 and 10 μM). Antagonist affinity was calculated and expressed as PKB values in Table 1.

[2] = target: T2, α1B-adrenoceptor (spleen) (Rattus norvegicus, UniProt P15823); experiment: In vitro functional assay, phenylephrine-induced contraction of isolated spleen; assay type: cell-based
T2 construct: Aorta, prostate and spleen tissues were isolated from urethane anaesthetized (1.5 gm/kg) male wistar rats; from tissue; host or cells: isolated spleen of male Wistar rats
T2 sequence (P15823 1-515): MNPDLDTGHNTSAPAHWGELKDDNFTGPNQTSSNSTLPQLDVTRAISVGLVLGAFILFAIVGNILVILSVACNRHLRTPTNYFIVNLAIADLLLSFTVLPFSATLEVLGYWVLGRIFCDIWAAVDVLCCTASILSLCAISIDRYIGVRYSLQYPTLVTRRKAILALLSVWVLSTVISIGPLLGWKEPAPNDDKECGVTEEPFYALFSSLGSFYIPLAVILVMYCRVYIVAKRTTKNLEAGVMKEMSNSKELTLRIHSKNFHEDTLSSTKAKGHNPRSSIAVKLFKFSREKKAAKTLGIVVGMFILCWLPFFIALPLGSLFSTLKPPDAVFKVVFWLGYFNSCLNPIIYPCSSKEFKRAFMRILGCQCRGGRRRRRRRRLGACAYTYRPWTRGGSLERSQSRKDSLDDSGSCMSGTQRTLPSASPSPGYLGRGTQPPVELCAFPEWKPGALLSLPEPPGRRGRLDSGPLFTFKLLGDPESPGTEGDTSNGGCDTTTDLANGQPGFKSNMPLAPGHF
Text: as §1

[3] = target: T3, α1B-adrenoceptor (Rattus norvegicus, UniProt P15823); experiment: Receptor binding assay, [3H]prazosin, rat liver membranes
T3 construct: from tissue; host or cells: rat liver membranes
T3 sequence (P15823 1-515): T2 sequence (P15823 1-515)
Method: (§2) Receptor binding assays, (RBA's) were performed for native α1-adrenoceptors. Rat submaxillary and rat liver membrane preparations were used to assess the affinity for α1A and α1B subtypes, respectively. Aliquots of membrane protein ([…]) were incubated in a final volume of […] assay buffer (50 mM Tris, 0.5 mM EDTA at pH 7.4) with 0.5 nM [^3H] prazosin for 60 mins at 28 ° C. Reaction was stopped by rapid filtration on Millipore filters. Filters were dried and bound radioactivity counted. Non-specific binding was determined in the presence of 0.3 mM prazosin.

[4] = target: T4, α1A-adrenoceptor (Rattus norvegicus, UniProt P43140); experiment: Receptor binding assay, [3H]prazosin, rat submaxillary membranes
T4 construct: from tissue; host or cells: rat submaxillary gland membranes
T4 sequence (P43140 1-466): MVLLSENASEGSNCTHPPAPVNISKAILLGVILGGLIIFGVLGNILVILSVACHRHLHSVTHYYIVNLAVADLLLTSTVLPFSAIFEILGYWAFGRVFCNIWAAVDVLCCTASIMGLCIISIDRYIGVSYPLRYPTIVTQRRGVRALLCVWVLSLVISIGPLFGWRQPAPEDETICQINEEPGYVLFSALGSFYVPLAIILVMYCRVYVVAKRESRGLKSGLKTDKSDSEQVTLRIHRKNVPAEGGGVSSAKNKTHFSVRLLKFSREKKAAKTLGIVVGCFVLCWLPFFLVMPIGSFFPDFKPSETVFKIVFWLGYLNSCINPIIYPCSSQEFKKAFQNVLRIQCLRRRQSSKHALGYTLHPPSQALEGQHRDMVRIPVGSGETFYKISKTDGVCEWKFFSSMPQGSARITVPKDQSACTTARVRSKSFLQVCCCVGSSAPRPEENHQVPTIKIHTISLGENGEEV
Method: as §2

[5] = target: T5, α1A-adrenoceptor (prostate) (Rattus norvegicus, UniProt P43140); experiment: In vitro functional assay, phenylephrine-induced contraction of isolated prostate; assay type: cell-based
T5 construct: Aorta, prostate and spleen tissues were isolated from urethane anaesthetized (1.5 gm/kg) male wistar rats; from tissue; host or cells: isolated prostate of male Wistar rats
T5 sequence (P43140 1-466): T4 sequence (P43140 1-466)
Text: as §1

[6] = rat aorta, norepinephrine, read-out: In Vitro Functional Assay (pKB) α1D (converted)
[7] = rat liver membranes, 0.5 nM [3H]prazosin, read-out: RBA (Ki nM) α1B
[8] = rat submaxillary membranes, 0.5 nM [3H]prazosin, read-out: RBA (Ki nM) α1A
[9] = rat spleen, phenylephrine, read-out: In Vitro Functional Assay (pKB) α1B (converted)
[10] = rat prostate, phenylephrine, read-out: In Vitro Functional Assay (pKB) α1A (converted)

O=C1CCC(=O)N1CCCN1CCN(c2ccc(F)cc2)CC1 [Compound 1, 1-[4-(4-Fluorophenyl)piperazin-1-yl]-3-(2,5-dioxopyrrolidin-1-yl)propane]
Kb [1, 6]: 0.158 µM | Kb [2]: 0.1 µM | Ki [3, 7]: 1000 nM | Ki [4, 8]: > 2500 nM | Kb [5]: 0.0794 µM

O=C1CCC(=O)N1CCCN1CCN(c2cccc(C(F)(F)F)c2)CC1 [Compound 3, 1-[4-(3-Trifluoromethylphenyl)piperazin-1-yl]-3-(2,5-dioxopyrrolidin-1-yl)propane]
Kb [1, 6]: 10 µM | Kb [2]: 0.0631 µM | Ki [3, 7]: 1000 nM | Ki [4, 8]: 1500 nM

O=C1CCC(=O)N1CCCN1CCN(c2ccccn2)CC1 [Compound 4, 1-[4-(2-Pyridyl)piperazin-1-yl]-3-(2,5-dioxopyrrolidin-1-yl)propane]
Kb [1, 6]: 2.51 µM | Ki [3, 7]: 2100 nM | Ki [4, 8]: 1660 nM

O=C1CCC(=O)N1CCCN1CCN(c2cccc(Cl)c2)CC1 [Compound 5, 1-[4-(3-Chlorophenyl)piperazin-1-yl]-3-(2,5-dioxopyrrolidin-1-yl)propane]
Kb [1]: 0.1 µM | Kb [2, 9]: 5.01 µM | Ki [3, 7]: 175 nM | Ki [4, 8]: 106 nM | Kb [5, 10]: 5.01 µM

O=C1CCC(=O)N1CCCN1CCN(c2ncccn2)CC1 [Compound 6, 1-[4-(2-Pyrimidyl)piperazin-1-yl]-3-(2,5-dioxopyrrolidin-1-yl)propane]
Kb [1, 6]: 0.316 µM | Kb [2, 9]: 5.01 µM | Ki [3, 7]: > 2500 nM | Ki [4, 8]: 1140 nM | Kb [5, 10]: 20 µM

Cc1ccc(N2CCN(CCCN3C(=O)CCC3=O)CC2)cc1C [Compound 7, 1-[4-(3,4-Dimethylphenyl)piperazin-1-yl]-3-(2,5-dioxopyrrolidin-1-yl)propane]
Kb [1, 6]: 0.316 µM | Kb [2, 9]: 0.2 µM | Ki [3, 7]: 282 nM | Ki [4, 8]: 450 nM | Kb [5, 10]: 0.398 µM

O=C1CCC(=O)N1CCCN1CCN(c2ccccc2)CC1 [Compound 8, 1-[4-(Phenylpiperazin)-1-yl]-3-(2,5-dioxopyrrolidin-1-yl)propane]
Kb [1, 6]: 0.251 µM | Ki [3, 7]: 590 nM | Ki [4]: 57 nM | Kb [5]: 0.0316 µM

COc1ccccc1N1CCN(CCN2C(=O)CCC2=O)CC1 [Compound 10, 1-[4-(2-Methoxyphenyl)piperazin-1-yl]-2-(2,5-dioxopyrrolidin-1-yl)ethane]
Kb [1, 6]: 0.126 µM | Kb [2, 9]: 0.2 µM | Ki [3, 7]: 2350 nM | Ki [4, 8]: 1600 nM | Kb [5, 10]: 0.126 µM

COc1cccc(N2CCN(CCCN3C(=O)CCC3=O)CC2)c1 [Compound 11, 1-[4-(3-Methoxyphenyl)piperazin-1-yl]-3-(2,5-dioxopyrrolidin-1-yl)propane]
Ki [3, 7]: > 2500 nM | Ki [4, 8]: > 2500 nM

COc1ccc(N2CCN(CCCN3C(=O)CCC3=O)CC2)cc1 [Compound 12, 1-[4-(4-Methoxyphenyl)piperazin-1yl]-3-(2,5-dioxopyrrolidin-1yl)propane]
Ki [3, 7]: > 2500 nM | Ki [4, 8]: > 2500 nM

O=C1CCCC(=O)N1CCCN1CCN(c2ccc(F)cc2)CC1 [Compound 14, 1-[4-(4-Fluorophenyl)piperazin-1-yl]-3-(2,6-dioxopiperidin-1yl)propane]
Kb [1, 6]: 0.0794 µM | Kb [2, 9]: 0.0398 µM | Ki [3, 7]: 192 nM | Ki [4, 8]: 67 nM | Kb [5, 10]: 0.00398 µM

O=C1CCCC(=O)N1CCCN1CCN(c2ccc(Cl)cc2)CC1 [Compound 15, 1-[4-(4-Chlorophenyl)piperazin-1-yl]-3-(2,6-dioxopiperidin-1yl)propane]
Kb [1, 6]: 0.631 µM | Kb [2, 9]: 1 µM | Ki [3, 7]: 201 nM | Ki [4, 8]: 520 nM | Kb [5, 10]: 0.2 µM

O=C1CCCC(=O)N1CCCN1CCN(c2cccc(C(F)(F)F)c2)CC1 [Compound 16, 1-[4-(3-Trifluoromethylphenyl)piperazin-1-yl]-3-(2,6-dioxopiperidin-1-yl)propane]
Kb [1, 6]: 0.126 µM | Ki [3, 7]: 765 nM | Ki [4, 8]: 345 nM | Kb [5, 10]: 0.316 µM

O=C1CCCC(=O)N1CCCN1CCN(c2ccccn2)CC1 [Compound 19, 1-[4-(2-Pyridyl)piperazin-1-yl)-3-(2,6-dioxopiperidin-1-yl)propane]
Kb [1, 6]: 0.2 µM | Ki [3, 7]: > 2500 nM | Ki [4, 8]: 164 nM | Kb [5, 10]: 0.398 µM

O=C1CCCC(=O)N1CCCN1CCN(c2cccc(Cl)c2)CC1 [Compound 20, 1-[4-(3-Chlorophenyl)piperazin-1-yl]-3-(2,6-dioxopiperidin-1-yl)propane]
Kb [1, 6]: 0.0251 µM | Ki [3, 7]: 113 nM | Ki [4, 8]: 22 nM | Kb [5, 10]: 0.0316 µM

O=C1CCCC(=O)N1CCCN1CCN(c2ncccn2)CC1 [Compound 22, 1-[4-(2-Pyrimidyl)piperazin-1-yl]-3-(2,6-dioxopiperidin-1-yl)propane]
Kb [1, 6]: 0.1 µM | Ki [3, 7]: > 2500 nM | Ki [4, 8]: > 2500 nM | Kb [5, 10]: 0.398 µM

COc1cccc(N2CCN(CCCN3C(=O)CCCC3=O)CC2)c1 [Compound 23, 1-[4-(3-Methoxyphenyl)piperazin-1yl]-3-(2,6-dioxopiperidin-1-yl)propane]
Ki [3, 7]: 940 nM | Ki [4, 8]: 2170 nM

COc1ccc(N2CCN(CCCN3C(=O)CCCC3=O)CC2)cc1 [Compound 24, 1-[4-(4-Methoxyphenyl)piperazin-1-yl]-3-(2,6-dioxopiperidin-1-yl)propane]
Ki [3]: > 2500 nM | Ki [4]: < 2500 nM

COc1ccccc1N1CCN(CCCCN2C(=O)CCCC2=O)CC1 [Compound 25, 1-[4-(2-Methoxyphenyl)piperazin-1yl]-4-(2,6-dioxopiperidin-1yl)butane]
Ki [3, 7]: 7.5 nM | Ki [4, 8]: 1.6 nM

COc1ccccc1N1CCN(CCCN2C(=O)CC(c3ccccc3)C2=O)CC1 (stereo not shown) [Compound 26, 1-[4-(2-Methoxyphenyl)piperazin-1yl]-3-[2,5-dioxo-3-phenyl-pyrolidin-1-yl]propane]
Ki [3, 7]: 600 nM | Ki [4, 8]: 30 nM

O=C1CCC(=O)N1CCCN1CCC(c2ccccc2)CC1 [Compound 27, 1-[4-(Phenyl)piperidin-1-yl]-3-[2,5-dioxopyrolidin-1-yl]propane]
Ki [3, 7]: 2000 nM | Ki [4, 8]: 1300 nM
